In patent publication US20260347403A1, “FUNGICIDAL COMPOUND” (priority 2022, published 2026):
“And” between values parts separate entries of the source, which are not always exact repeats. Equal entries are not always repeated. Where two headings read alike, the source gives them in different places. Numbered stars: 1 amine (or outer) side, 2 acyl side, 3 side chain; on linkers, the order of the positions; unused ones are H or OH. Bridge positions count the residues as written; N and C are the ends. Square brackets hold non-standard residues; d marks the D form. Peptide text beside a SMILES is read from it. * marks the point of attachment. Tridecanoyl(12-Me) = CC(C)CCCCCCCCCCC(=O)*; X1 = NC(=O)CC(O)C(N[*:1])C(=O)[*:2]; NMeF = CN[CH](Cc1ccccc1)C(=O)O; NMeN = CN[CH](CC(N)=O)C(=O)O; X2 = CCC(C)CCCCCCCCCCC(=O)*

Columns and labels:
[1] = system: Mycosphaerella arachidis; assay: Liquid culture, Mycosphaerella arachidis (Cercospora arachidicola), early leaf spot, 4-5 days; type: cell-based; details: Mycosphaerella arachidis, read-out: % reduction fungal growth
Procedure: Mycelia fragments or conidia suspensions of a fungus, prepared either freshly from liquid cultures of the fungus or from cryogenic storage, were directly mixed into nutrient broth.
A stock solution for compound of Formula I(a) and Formula I(b) was produced in DMSO (max. 10 mg/ml), which was diluted with water plus 0.025% Tween®20 to produce a 10× concentrated sample and 10 μl of this solution was pipetted into a microtiter plate (96-well format). The nutrient broth containing the fungal spores/mycelia fragments was then added to give an end concentration of the tested compound. The test plates were incubated in the dark at 24 °C and 96% rh. The inhibition of fungal growth was determined photometrically after 2-7 days, depending on the pathosystem, and percent antifungal activity relative to the untreated check was calculated.
The effect of the test compound (Formula I(a), I(b) and Lipopeptin A) was tested against the following fungi under the conditions as outlined above and specifically herein below:
Mycosphaerella arachidis (Cercospora arachidicola)/liquid culture (early leaf spot) Conidia of the fungus from cryogenic storage were directly mixed into nutrient broth (PDB potato dextrose broth). The inhibition of growth was determined photometrically 4-5 days after application.

[2] = system: Phaeosphaeria nodorum; assay: Leaf disc test on wheat, Phaeosphaeria nodorum (Glume Blotch), 5-7 days after application; type: in vivo, Phaeosphaeria nodorum (Septoria nodorum) on wheat; details: Table 5
Procedure: (§1) Leaf disks or leaf segments of various plant species were cut from plants grown in the greenhouse. The cut leaf disks, or segments were placed in multiwell plates (24-well format) onto water agar. The leaf disks were sprayed with a test solution before inoculation with the fungal spores. Compounds to be tested were prepared as DMSO solutions (max. 10 mg/ml) which were diluted to the appropriate concentration with water plus 0.025% Tween® 20 just before spraying. The inoculated leaf disks or segments were incubated under defined conditions (temperature, relative humidity, light, etc.) according to the respective test system. A single evaluation of disease level was carried out by visual evaluation 3-9 days days after inoculation, depending on the pathosystem as indicated below. Percent disease control relative to the untreated check leaf disks or segments was then calculated.
Phaeosphaeria Nodorum (Septoria nodorum)/Wheat/Leaf Disc (Glume Blotch)
Wheat leaf segments cv. Kanzler were placed on agar in a multiwell plate (24-well format) and sprayed with the formulated test compound diluted in water. The leaf disks were inoculated with a spore suspension of the fungus 2 days after application. The inoculated test leaf disks were incubated at 20 °C and 75% rh under a light regime of 12 h light/12 h darkness in a climate cabinet and the activity of a compound was assessed as percent disease control compared to untreated when an appropriate level of disease damage appears in untreated check leaf disks (5-7 days after application)

[3] = system: Pyrenophora teres; assay: Leaf disc preventative test on barley, Pyrenophora teres (Net Blotch), 5-7 days after application; type: in vivo; details: Table 5
Procedure: as §1
Pyrenophora teres/Barley/Leaf Disc Preventative (Net Blotch)
Barley leaf segments cv. Hasso were placed on agar in a multiwell plate (24-well format) and sprayed with the formulated test compound diluted in water. The leaf segments were inoculated with a spore suspension of the fungus 2 days after application. The inoculated leaf segments were incubated at 20 °C and 65% rh under a light regime of 12 h light/12 h darkness in a climate cabinet and the activity of a compound was assessed as disease control compared to untreated when an appropriate level of disease damage appears in untreated check leaf segments (5-7 days after application).

[4] = system: Puccinia recondita; assay: Leaf disc mixture assay with malonomicin, Puccinia recondita, curative spray timing, 8 dpi; type: in vivo, Puccinia recondita on wheat (cultivar Kanzler)
Procedure: A stock solution for the lipopeptide compound of Formula I(a) was produced in DMSO (max. 10 mg/ml). Malonomicin was produced according to Law et al, 2018 (Nature Catalys is |VOL 1|DECEMBER 2018|977-984). A stock solution of malonomicin was produced in water plus 0.025% Tween®20.
Assays to test efficacy of mixtures of compound of Formula I(a) in combination with malonomicin on the control of fungal pathogens in a leaf disc assay were designed for two 24well plates.
Table 22 and Table 23. Outline of 24well testplate (1) and testplate (2) including concentration of compounds sprayed per well. The upper number in the cell indicates compound of Formula I(a) concentration (ppm), the lower number malonomicin concentration (ppm). Column (1) holds a dilution series of compound of Formula I(a), row (2-D) hold a dilution series of malonomicin. Well 2-D-(1) represents an untreated check. This design was applied for tests including Puccinia recondita (EPPO code: PUCCRE) with preventive and curative spray timing.
A first set of master plates with 1× concentrated spray solution of the lipopeptide compound of Formula I(a) stock diluted in water with concentrations according to table 22, table 23, table 25 or table 26, respectively, was prepared. Each well contained 2% DMSO and 0.025% Tween20. Accordingly, a second set of master plates with 1× concentrated malonomicin stock diluted in water was prepared. Each well of the second set contained 0.025% Tween20. Leaf segments placed on agar in 24well plates were sprayed with 8 μl of solution from the master plate containing the lipopeptide compound of Formula I(a) and the leaf segments were let to dry, followed 2 hours later by 8 μl of solution from the master plate containing malonomicin. After second sprays had dried, leaf segments were infected with fungal spores to obtain a preventive application timing. Alternatively, leaf segments infected one day before spray of the compounds were used, resulting in a curative spray timing. In addition, several plates were produced where leaf segments were sprayed 2× in absence of test compound (with only DMSO and Tween20), representing the untreated check samples. For each leaf segment percent leaf coverage of disease symptoms was assessed. Percent leaf coverage reduction relative to the untreated check was calculated. Efficacy of the mixtures was tested in duplicate and on different fungal species. Reported efficacy values are the average of two replicate results.
Puccinia recondita (EPPO Code: PUCCRE) with Curative Spray Timing.
Wheat (cultivar Kanzler) leaf segments are placed on agar in multiwell plates (24-well format). The leaf disks are then inoculated with a spore suspension of the fungus. One day after inoculation the test solution is sprayed (8 ul per well). After appropriate incubation the activity of a compound is assessed 8 dpi (days after inoculation) as curative fungicidal activity

Row | SMILES | inhibition of growth at 0.41 ppm ([1]; Table 2) | inhibition of growth at 1.2 ppm ([1]; Table 2) | inhibition of growth at 3.7 ppm ([1]; Table 2) | inhibition of growth at 11 ppm ([1]; Table 2) | inhibition of growth at 33 ppm ([1]; Table 2) | inhibition of growth at 100 ppm ([1]; Table 2) | inhibition of growth at 0.41 ppm ([1]; Table 3) | inhibition of growth at 1.2 ppm ([1]; Table 3) | inhibition of growth at 3.7 ppm ([1]; Table 3) | inhibition of growth at 11 ppm ([1]; Table 3) | inhibition of growth at 33 ppm ([1]; Table 3) | inhibition of growth at 100 ppm ([1]; Table 3) | % reduction of fungal growth ([2]; 0.82 ppm) | % reduction of fungal growth ([2]; 2.5 ppm) | % reduction of fungal growth ([2]; 7.4 ppm) | % reduction of fungal growth ([2]; 22 ppm) | % reduction of fungal growth ([2]; 67 ppm) | % reduction of fungal growth ([2]; 200 ppm) | % reduction of fungal growth ([3]; 0.82 ppm) | % reduction of fungal growth ([3]; 2.5 ppm) | other results
1 | CC(C)CCCCCCCCCCC(=O)NC1C(=O)NC(CC(=O)O)C(=O)NC(C(O)CC(N)=O)C(=O)NC(CO)C(=O)N(C)C(CC(N)=O)C(=O)N(C)C(Cc2ccccc2)C(=O)NC(CCC(N)=O)C(=O)NC(CCC(=O)O)C(=O)OC1C (stereo not drawn) [Formula I(a)] ({Tridecanoyl(12-Me)}-TD[X1]S[NMeN][NMeF]QE; ester 1-C; configuration not given here) | 0% | 0% | 100% | 100% | 100% | 100% | 0% | 0% | 0% | 70% | 100% | 100% | 0% | 0% | 0% | 0% | 0% | 50% | 0% | 0% | % reduction of fungal growth ([3]; 7.4 ppm): 0%; % reduction of fungal growth ([3]; 22 ppm): 0%; % reduction of fungal growth ([3]; 67 ppm): 60%; % reduction of fungal growth ([3]; 200 ppm): 80%; control of fungal growth (% reduction of symtoms on the leaf segment as compared to untreated check) ([4]; column (1): compound of Formula I(a) alone, lines 1-A to 2-C = 200, 100, 50, 25, 12.5, 6.25, 3.13 ppm): 0% and 10%
2 | CCC(C)CCCCCCCCCCC(=O)NC1C(=O)NC(CC(=O)O)C(=O)NC(C(O)CC(N)=O)C(=O)NC(CO)C(=O)N(C)C(CC(N)=O)C(=O)N(C)C(Cc2ccccc2)C(=O)NC(CCC(N)=O)C(=O)NC(CCC(=O)O)C(=O)OC1C (stereo not drawn) [Formula I(b)] (X2-TD[X1]S[NMeN][NMeF]QE; ester 1-C; configuration not given here) | 0% | 0% | 0% | 90% | 100% | 100% | 0% | 0% | 0% | 100% | 100% | 100% | 0% | 0% | 0% | 0% | 0% | 0% | 0% | 0% | % reduction of fungal growth ([3]; 7.4 ppm): 0%; % reduction of fungal growth ([3]; 22 ppm): 0%; % reduction of fungal growth ([3]; 67 ppm): 90%; % reduction of fungal growth ([3]; 200 ppm): 90%
3 | NC[C@@H]1NC(=O)C(C(=O)CC(NC(=O)[C@@H](N)CO)(C(=O)O)C(=O)O)=C1O [malonomicin, {[(2S)-2-amino-3-hydroxypropanoyl]amino}{2-[(5S)-5-(aminomethyl)-4-hydroxy-2-oxo-2,5-dihydro-1H-pyrrol-3-yl]-2-oxoethyl}malonic acid] |  |  |  |  |  |  |  |  |  |  |  |  |  |  |  |  |  |  |  |  | control of fungal growth (% reduction of symtoms on the leaf segment as compared to untreated check) ([4]; column (2): malonomicin 200 ppm, compound of Formula I(a) lines 1-A to 2-D = 200, 100, 50, 25, 12.5, 6.25, 3.13, 0 ppm): 100%; control of fungal growth (% reduction of symtoms on the leaf segment as compared to untreated check) ([4]; column (3): malonomicin 20 ppm, compound of Formula I(a) lines 1-A to 2-D = 200, 100, 50, 25, 12.5, 6.25, 3.13, 0 ppm): 100%; control of fungal growth (% reduction of symtoms on the leaf segment as compared to untreated check) ([4]; column (4): malonomicin 6.67 ppm, compound of Formula I(a) lines 1-A to 2-D = 200, 100, 50, 25, 12.5, 6.25, 3.13, 0 ppm): 100%; control of fungal growth (% reduction of symtoms on the leaf segment as compared to untreated check) ([4]; column (5): malonomicin 2.22 ppm, compound of Formula I(a) lines 1-A to 2-D = 200, 100, 50, 25, 12.5, 6.25, 3.13, 0 ppm): 70%; control of fungal growth (% reduction of symtoms on the leaf segment as compared to untreated check) ([4]; column (6): malonomicin 0.74 ppm, compound of Formula I(a) lines 1-A to 2-D = 200, 100, 50, 25, 12.5, 6.25, 3.13, 0 ppm): 35%
